Laboratory results as given in paper PMC10447463, “Data-mining unveils structure–property–activity correlation of viral infectivity enhancing self-assembling peptides” (Nature Communications, 2023).
Like-named read-outs stand apart in the source and are kept apart here.

Columns and labels:
[1] = Turbidity, derived count rate of scattered light; format: physicochemical; conditions: for Count Rate / kcps: derived count rate of scattered light at 633 nm, 173°, from zeta-potential measurement, 0.1 mg/mL in 1 mM KCl after 1 d at 1 mg/mL in PBS, turbidity / microscopic aggregation, mean of triplicate
Procedure, shortened: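 One-day room-temperature aggregation at 1 mg/mL in PBS (pH 7.4) preceded measurement; samples then went into 1 mM KCl. Triplicates per sample, two independent experiments averaged.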

[2] = Zeta-potential measurement; format: physicochemical; conditions: for Zeta pot. / mV: 1 mg/mL in PBS pH 7.4 from 10 mg/mL DMSO stock, 1 d RT, 60 µL diluted in 600 µL 1 mM KCl, Zetasizer Nano ZS, Smoluchowski, mean of triplicate; for Zeta-Potential / mV: Figure 6C; for Zeta-pot. / mV: zeta potential of peptide, Fig S15 source data
Procedure, shortened: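 Surface charge of aggregated peptides: 1 mg/mL solutions in PBS (pH 7.4) incubated 1 d at RT, diluted into 1 mM KCl just before reading. Electrophoretic mobility converted to zeta potential by the Smoluchowski formula; triplicate measurements from two separate experiments averaged.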

[3] = test system: HIV-1 infection of TZM-bl cells; assay: HIV-1 infectivity enhancement assay, β-galactosidase luminescence; format: cell-based
[4] = log10 of derived count rate of scattered light, Figure 6C
[5] = logarithm of count rate in kcps
[6] = HIV-1 infection relative to EF-C; Fig 23 plot, panels A and B; mean of 3 values
[7] = HIV-1 infection relative to EF-C; Fig 23 plot, single data point, replicate 2
[8] = HIV-1 infection relative to EF-C; Fig 23 plot, single data point, replicate 3
[9] = log10 of infection relative to EF-C, Figure 6C
[10] = n-fold infection vs virus only, relative to that of EF-C, 1.3 µM peptide
[11] = infectivity class (low / medium / high) of each library peptide; main list in c1-c6, same classes repeated in sub-lists of sequences containing the hydrophobicity/charge patterns P+,H0,P+,H0,P0,H0,P0; P+,H0,P0,H0,P0,H0,P0; P+,H0,P0,H0
[12] = log10 of HIV-1 infection of TZM-bl cells relative to EF-C; Fig S15 source data; asymmetric std dev errors
[13] = derived count rate of scattered light, mean, std deviation in separate column
[14] = Feb2021 run; infectivity n-fold relative to virus alone
[15] = Feb2021 run; log10 of infectivity relative to EF-C
[16] = Feb2021 run; n-fold infectivity relative to EF-C
[17] = infectivity class (low / medium / high) of the peptide in the sequence-pattern analysis, Fig. S22-A4; class limits not given
[18] = derived count rate of scattered light
[19] = Feb2021; figures match the 1.3 µM column
[20] = Feb2021; infectivity relative to virus only
[21] = Feb2021; log10 of infectivity relative to EF-C
[22] = Feb2021; n-fold infectivity relative to EF-C

Substance	Count Rate / kcps [1]	Log10 Count Rate [1, 4]	Log10 Count Rate [1, 5]	Zeta-Potential / mV ([2]; mean)	Log10 Infection Rel EF-C [3, 9]	Inf. rel. EF-C [3, 10]	Zeta category ( +1 = if > 4 mV;-1 = if < -4 mV; 0 = -4mV to 4 mV) [2]	Zeta Pot. / mV ([2]; mean, Std in separate column)	Zeta-pot. / mV [2]	infectivity [3, 11]	Log10 Inf. rel. to EF-C [3, 12]	Zeta Count Rate / kcps [1, 13]	n-fold to virus (Feb2021) [3, 14]	Log10 of Rel to EFC (Feb2021) [3, 15]	Rel-to EFC (Feb-2021) [3, 16]	infectivity [3, 17]	further results
CRLRVGVS	35.07 kcps	1.545	1.545	10.53 mV	-1.362	0.04											Zeta pot. / mV [2]: 10.53 mV; Inf. rel. EF-C [3, 6]: 0.04346; Inf. rel. EF-C ([3]; HIV-1 infection relative to EF-C; Fig 23 plot, single data point, replicate 1): 0.06547; Inf. rel. EF-C [3, 7]: 0.03045; Inf. rel. EF-C [3, 8]: 0.03448
CEFEFQF [KB12]							-1 (-1 = if < -4 mV)	-24.5 mV	-13.7 mV	low	-2.283						Zeta Count Rate / kcps ([1]; derived count rate from zeta measurement, mean): 405.4 kcps; Zeta Count Rate Category ([1]; key not given): 1; Rel-to EFC (Feb-2021) ([3]; infectivity enhancement relative to EF-C (=1); Feb2021 run): 0.003272; n-fold to virus (Feb2021) ([3]; infectivity n-fold relative to virus only; Feb2021 run): 0.1375; Log10 of Rel to EFC (Feb2021) ([3]; log10 of infectivity relative to EF-C; Feb2021 run): -2.485
KFKFQFNMW [BL5 / KB13]							1 (+1 = if > 4 mV)	22.6 mV	22.6 mV	medium	-0.3503	610.2 kcps	18.76	-0.3503	0.4464		
KIKIQINMWWQ [VH11]							1 (+1 = if > 4 mV)	11.8 mV	11.8 mV	high	0.5063	3893 kcps	134.825	0.5063	3.209	high	
KIKIKIKI [TM13]							1 (+1 = if > 4 mV)	5.46 mV	5.46 mV		-1.487	155.1 kcps	1.369	-1.487	0.03258	low	
CRFRFHFH	430.2 kcps	2.634	2.634	19.6 mV	-0.2767	0.53											
KFKQFFINMWQ [VH14]							1 (+1 = if > 4 mV)		7.99 mV		-0.03603					high	Zeta Count Rate Category ([1]; category 1 / 0, no key given): 1; Zeta Count Rate / kcps [1, 18]: 8996 kcps; Zeta Pot. / mV [2]: 7.99 mV; Absolute Infectivity / RLU /s (Feb2021) [3, 19]: 14953.33333 RLU /s; n-fold to virus (Feb2021) [3, 20]: 38.67; Log10 of Rel to EFC (Feb2021) [3, 21]: -0.03603; Rel-to EFC (Feb-2021) [3, 22]: 0.9204
HHHHKAKAKAKAWWWW [TM8]							1 (+1 = if > 4 mV)		17.4 mV		-1.048					low	Zeta Count Rate Category ([1]; category 1 / 0, no key given): 1; Zeta Count Rate / kcps [1, 18]: 658.9 kcps; Zeta Pot. / mV [2]: 17.4 mV; Absolute Infectivity / RLU /s (Feb2021) [3, 19]: 3233 RLU /s; n-fold to virus (Feb2021) [3, 20]: 3.76; Log10 of Rel to EFC (Feb2021) [3, 21]: -1.048; Rel-to EFC (Feb-2021) [3, 22]: 0.08948
RINFWFW	50995.8 kcps	4.708	4.708	10.8 mV	-1.347	0.04											
CRLSLSLS	1697 kcps	3.23	3.23	8.977 mV	-0.5039	0.31											Zeta pot. / mV [2]: 8.977 mV; Inf. rel. EF-C [3, 6]: 0.3134; Inf. rel. EF-C [3, 7]: 0.2799; Inf. rel. EF-C [3, 8]: 0.2877
